Data as given in patent US20230391765A1, “HETEROBIFUNCTIONAL COMPOUNDS AS DEGRADERS OF ENL” (ICAHN SCHOOL OF MEDICINE AT MOUNT SINAI, priority 2020, published 2023).

Key:
ENL target genes [1] = experiment: RT-qPCR of ENL target genes in MV4; 11 cells; type: cell-based; details: 11 cells, 1, 2 and 4 μM for 6, 12, 18 and 24 h
Experimental: MV4; 11 cells were treated with DMSO, or LQ076-122 at 1, 2, and 4 μM for 6, 12, 18 and 24 h. RT-qPCR analysis was performed to detect the mRNA levels of selected ENL target genes.
(§1) Total RNA was extracted using the RNeasy Plus kit (Qiagen) and reverse-transcribed using the iScript cDNA Synthesis kit (Bio-Rad). RT-qPCR was performed using the Power SYBR Green PCR Master Mix (Applied Biosystems) on the CFX96 Real-Time PCR system (Bio-Rad). Gene expressions were calculated following normalization to 18s rRNA amounts using the comparative cycle threshold (Ct) method.

MOLM13 cells = experiment: Apoptosis assay (FITC Annexin V), MOLM13 cells; type: cell-based; details: MOLM13 cells, 1, 2 and 4 μM for 24 h
Experimental: (§2) Apoptotic cells were measured by the FITC Annexin V Apoptosis Detection Kit (BD Biosciences).
(§3) MV4; 11 or MOLM13 cells were seeded at 0.2×10^6 cells/mL density. Cells were treated with DMSO or ENL degraders at indicated concentrations. Each treatment was done in triplicates. After 24 h treatment, cells were collected and washed with ice-cold PBS once and resuspended in 250 μL of 1× binding buffer containing 5 μL of FITC-Annexin V and PI (BD Biosciences). After 15 min incubation at room temperature in the dark, 250 μL of 1× binding buffer was added and flow cytometry analysis was performed.

ENL target genes [2] = experiment: RT-qPCR of ENL target genes in MOLM13 cells; type: cell-based; details: MOLM13 cells, 0.5, 1, 2, 4 and 8 μM for 24 h
Experimental: MOLM13 cells were treated with LQ076-122 (FIG. 14A) and LQ081-108 (FIG. 14B) at 0.5, 1, 2, 4, and 8 μM for 24 h. […] RT-qPCR analysis was performed to detect the mRNA levels of selected ENL target genes.
as §1

MV4; 11-Luc cells = experiment: MV4; 11 disseminated xenograft model, bioluminescence imaging; type: in vivo; details: NSG mice with MV4, 100 mg/kg twice daily IP, three cycles (4 treatment days, 2 resting days)
Experimental: Immuno-deficient NSG mice were irradiated and transplanted with 5×10^5 MV4; 11-Luc cells through tail-vein injections. Ten days after transplantation, mice (n=5) were treated with 100 mg/kg LQ076-122 or vehicle twice daily through IP injection in cycles. Each cycle contains 4 treatment days followed by 2 resting days. Day 0 is the time that the treatment started. Leukemia progression was monitored by bioluminescence imaging at different time points upon LQ076-122 or vehicle treatment (FIG. 18A). The mean radiances of bioluminescence signal were quantified in FIG. 18B.
Immunodeficient NOD.Cg-Prkdc^scidIl2rg^tm1wil/SzJ (NSG) mice at 6-8 weeks of age were produced at the Van Andel Institute Vivarium and Transgenic Core using breeders purchased from the Jackson laboratory. Mice were pretreated with acidified water and antibiotics for a week before a sublethal dose of total body irradiated (2 Gy). Then mice were transplanted with 0.5×10^6 MV4; 11-Luc cells through tail-vein injection. ENL degrader treatment was started ten days after transplantation with the successful engraftment confirmed by bioluminescence imaging. Mice were randomly assigned to two groups (n=5) and treated with IP injections of either ENL degrader LQ076-122 (100 mg/kg, twice daily) or vehicle. […] Leukemia progression in each animal was monitored by bioluminescence imaging after each treatment cycle. […]

MV4; 11 cells = experiment: Apoptosis assay (FITC Annexin V), MV4; 11 cells; type: cell-based; details: 11 cells, 1, 2 and 4 μM for 24 h
Experimental: as §2, §3

[3] = In vivo pharmacokinetics (PK) study, plasma concentration; parameters: species or system C57BL/6 mice; details: mice, single 50 mg/kg IP injection
Experimental: Three C57BL/6 mice at 6-8 weeks of age were used in PK study for each time point. After a single dose intraperitoneal (IP) injection of ENL degrader LQ076-122 (50 mg/kg), plasma concentrations of degrader were measured at 6 time points (0.5, 1, 2, 4, 8 and 12 h) from each test animal. The concentrations of LQ076-122 in plasma were maintained above 2 μM for 6 h with the maximum plasma concentration of about 6 μM.
The standard mouse PK study was conducted by Charles River Laboratories. Three C57BL/6 mice at 6-8 weeks of age were used for each time point. After a single dose intraperitoneal (IP) injection of ENL degrader (50 mg/kg), plasma concentrations of degrader were measured at […] (in hours: 0.5, 1, 2, 4, 8 and 12 h) from each test animal.

[4] = system: ENL-dependent MOLM13 leukemia cells; experiment: Cell viability (CellTiter-Glo), MOLM13 cells; type: cell-based; details: MOLM13 cells, 0.5, 1, 2 and 4 μM for 72 h
Experimental: MV4; 11 (FIG. 13A), MOLM13 (FIG. 13B) and Jurkat (FIG. 13C) cells were seeded at 2×10^5 cells/mL density and treated with DMSO or indicated compounds 0.5, 1, 2 and 4 μM for 72 h. Cell viability was measured using CellTiter-Glo reagent (Promega) and relative cell viability was calculated by normalization to DMSO samples.
MV4; 11 or MOLM13 cells were seeded at 0.2×10^6 cells/mL density. Cells were treated with DMSO or ENL degraders at indicated concentrations. Each treatment was done in triplicates. After 72 h treatment, 100 μL of cell suspension from each treatment was mixed with 25 μL of CellTiter-Glo reagent (Promega) and incubated for 10 min before the luminescence signals were detected on a plate reader.

- concentration in plasma maintained for 6 h [3]: above 2 μM
- maximum plasma concentration [3]: about 6 μM
SMILES: Cc1ncsc1-c1ccc(CNC(=O)[C@@H]2C[C@@H](O)CN2C(=O)[C@@H](NC(=O)CCCCCCCCCCNC(=O)c2ccc(C(=O)Nc3ccc4[nH]c(CN5CCC[C@@H]5C)nc4c3)cc2)C(C)(C)C)cc1 [LQ076-122, N^1-(11-(((S)-1-((2S,4R)-4-hydroxy-2-((4-(4-methylthiazol-5-yl)benzyl)carbamoyl)pyrrolidin-1-yl)-3,3-dimethyl-1-oxobutan-2-yl)amino)-11-oxoundecyl)-N^4-(2-(((S)-2-methylpyrrolidin-1-yl)methyl)-1H-benzo[d]imidazol-5-yl)terephthalamide]
- ENL target gene expression (mRNA levels) (ENL target genes [1]): reduced ENL target gene expression in a concentration- and time-dependent manner
- induction of apoptosis (MOLM13 cells): induced apoptosis
- ENL target gene expression (mRNA levels) (ENL target genes [2]): reduced ENL target gene expression in a concentration-dependent manner
- leukemia progression (MV4; 11-Luc cells): significantly inhibited leukemia progression
- induction of apoptosis (MV4; 11 cells): induced apoptosis
- suppression of cell growth (relative cell viability) [4]: selectively suppressed cell growth
